Literature values, collected in patent US8563014B2, “Modafinil oral lyophilizate” (Teva Sante, priority 2004, dated 2013).

What was measured:
mice = conditions: single administration
monkeys = conditions: single administration

NC(=O)C[S+]([O-])C(c1ccccc1)c1ccccc1 (centres unmarked) [modafinil, 2-(benzhydrylsulfinyl)acetamide]
Locomotor activity (mice): increased locomotor activity
Nocturnal activity (monkeys): increased nocturnal activity
